According to patent US10532085B2, “Methods for increasing intracellular activity of Hsp70” (Orphazyme A/S, priority 2010, dated 2020):

Key:
Hsp70-MEFs = assay: Lysosomal membrane integrity upon photo-oxidation in Hsp70-MEFs; type: cell-based, murine; conditions: subtoxic concentration
Protocol: (§1) BMP binds ASM with high affinity and stimulates its ability to hydrolyze sphingomyelin to ceramide and phosphorylcholine. […] In order to test whether ASM is responsible for the lysosome stabilizing effect we treated the cells with desipramine, a well characterized pharmacological ASM inhibitor. […] It should be noted that akin to rHsp70, also rASM localized to the lysosomes.
(§2) Sub-confluent cells incubated with 2 μg/ml acridine orange for 15 min at 37° C. were washed, irradiated and analyzed in Hanks balanced salt solution complemented with 3% fetal calf serum. Cells for single cell imaging were selected from 8 pre-defined areas of each well in transmitted light-mode after which the same cells were immediately visualized and exposed to blue light from USH102 100W mercury arc burner (Ushio electric) installed in a U-ULS100HG housing (Olympus) for 20 sec. Fluorescence microscopy was performed on Olympus IX-70 inverted microscope with a LCPlanF1 ×20 objective with NA=0.40. Loss of lysosomal pH gradient was quantified by counting the loss of intense red staining. A more elaborate method for assaying lysosomal integrity was developed to handle the larger lysosomal compartment of the various fibroblasts used in this study. […] The resulting timelapse movies where subsequently analysed by the integrated Zeiss LSM DUO software.

MEFs [1] = type: cell-based
Protocol: as §1
The total and cytoplasmic (digitonin-extracted) cathepsin activities were measured in digitonin-treated samples using zFR-AFC (Enzyme System Products) probe as described in the art.

MEFs [2] = type: cell-based; remark: listed apart in the source
Protocol: as §1
Cell density was assessed by the 3-(4,5-dimethylthiazole-2-y)-2,5-[…] (MTT, SIGMA-Aldrich) reduction assay essentially as described in the art. Apoptosis-like cell death was assessed by staining the cells with 0.05 μg/ml Hoechst 33342 (Molecular Probes) and counting cells with condensed nuclei in an inverted Olympus IX-70 fluorescent Microscope (Filter U-MWU 330-385 nm). For each experiment a minimum of eight randomly chosen areas were counted.

U-2-OS cells = assay: Lysosomal integrity upon photo-oxidation (acridine orange and blue light); type: cell-based, Human; conditions: recombinant proteins 300 nM, 24 h
Protocol: FIG. 2: Lysosomal Hsp70 stabilizes lysosomal membranes. (a) Representative confocal images of U-2-OS cells incubated with 300 nM rHsp70-AF488 (green) for 24 h, fixed and stained for lysosomal integral membrane protein-1 (LIMP-1; red). For co-localization with other organelle markers see FIG. 3. (b) U-2-OS cells were incubated with 300 nM rHsp70-AF488 for 24 h before quantification of rHsp70-AF488 in membranes (memb.) and supernatant (sup.) obtained by repeated freeze/thaw cycles and centrifugation the light membrane fraction (LMF). […] (c) Representative still images of U-2-OS cells exposed to photo-oxidation (acridine orange and blue light). The loss of lysosomal integrity is visualized by the loss of red and increase in green staining. (d and e) U-2-OS cells were incubated with indicated recombinant proteins (300 nM) for 24 h, and analyzed for lysosomal integrity upon photo-oxidation. When indicated, cells were treated with indicated siRNAs for 48 h prior to the addition of recombinant proteins (e). The values represent means±SD (standard deviation) for three (d) or five (e) independent experiments. Representative immunoblots of indicated proteins from U-2-OS cells left untreated or treated with control or Hsp70 siRNAs are shown on the right. Scale bars: 20 μm (a and c).
WT- and Hsp70-MEFs were generated, immortalized and maintained as described in the art. Human NPDA fibroblasts (83/24) originate from a skin biopsy of a patient with hepatosplenomegaly. Recombinant proteins were generated using the pET-16b vector system and Ni^2+-affinity-purification (Novagen), and labeled with Alexa Fluor 488 according to manufacturers protocol (Molecular Probes). To analyze the lysosomal integrity, we developed a real time imaging method of cells stained with acridine orange, a metachromatic weak base that accumulates in the acidic compartment of the cells staining them red and sensitizing them to photo-oxidation. The photo-oxidation-induced loss of the lysosomal pH-gradient and leakage of acridine orange to the cytosol from individual lysosomes was quantified visually as “loss of red dots” in U2-O—S cells and as a decrease in red and an increase in green fluorescence by Zeiss LSM DUO Software in fibroblasts. The total and cytoplasmic (digitonin-extracted) cathepsin activities were measured in digitonin-treated samples using zFR-AFC (Enzyme System Products) probe as described in the art. The tryptophan fluorescence spectra and liposome 90° light scattering were analyzed in a HEPES buffer (20 mM HEPES, 0.1 mM EDTA, pH as indicated) essentially as described in the art. Surface plasmon resonance measurements were performed with immobilized LUVs using a BIAcore 2000 system as described in the art. Hsp70 siRNA (5′-[…]-3′) and a […] were transfected with Oligofectamine (Invitrogen). Immunodetection was performed with standard protocols. Apoptosis-like cell death and lysosomal membrane permeabilization were analyzed essentially as described in the art. ASM activity was analyzed by Amplex Red Sphingomyelinase Assay Kit (A12220) from Molecular Probes with modifications described in the art. Statistical analysis was performed using a two-tailed, paired Student's T-test and all groups of data were tested for the comparability of their variances using an F-test.
Sub-confluent cells incubated with 2 μg/ml acridine orange for 15 min at 37° C. were washed, irradiated and analyzed in Hanks balanced salt solution complemented with 3% fetal calf serum. Cells for single cell imaging were selected from 8 pre-defined areas of each well in transmitted light-mode after which the same cells were immediately visualized and exposed to blue light from USH102 100W mercury arc burner (Ushio electric) installed in a U-ULS100HG housing (Olympus) for 20 sec. Fluorescence microscopy was performed on Olympus IX-70 inverted microscope with a LCPlanF1 ×20 objective with NA=0.40. […]

[3] = Tryptophan fluorescence shift upon docking into BMP-containing liposomes; type: binding
Excerpt: In order to investigate which part of the Hsp70 protein is responsible for the BMP binding, we measured the fluorescence shift of the tryptophans upon docking of rHsp70 and its mutants into BMP-containing liposomes. […] Next, we substituted the two tryptophans in Hsp70 with phenylalanines (W90F and W580F) and studied which tryptophan is responsible for the fluorescence shift induced by lipid binding. […] A more quantitative BIAcore analysis of the BMP—rHsp70 interaction confirmed that Hsp70 interacted with BMP mainly through its ATPase domain. […] Thus, the rHsp70-W90F mutant provided us with an invaluable tool to further test whether the direct interaction between Hsp70 and BMP endows Hsp70 with its lysosome protective attributes. […] Importantly, mutant Hsp70 proteins were endocytosed essentially as effectively as the wild type Hsp70.
The tryptophan fluorescence spectra (RFI) and liposome 90° light scattering (RSI) were analyzed in a HEPES buffer (20 mM HEPES, 0.1 mM EDTA, pH 7.4 or 6.0 as indicated) employing LUVs consisting of indicated lipids essentially as described in the art. For the RFI, LUVs were added in 10 μM aliquots and spectra recorded after a 20 min stabilization period. For the RSI, recombinant proteins were added in 0.12 nmol aliquots.

[4] = Surface plasmon resonance (BIAcore) BMP interaction; type: binding; conditions: acidic pH
Excerpt: Thus, we investigated the interaction of Hsp70 with palmitoyl-oleoyl-phosphatidylcholine (POPC) large unilamellar vesicles (LUVs) containing various membrane-associated anionic lipids, i.e. palmitoyl-oleoyl-phosphatidylserine (POPS; primarily in plasma membrane), cardiolipin (primarily mitochondrial) and BMP (primarily in late endosomes/lysosomes). Taking into account the increasingly acidic milieu of the endo-lysosomal compartment upon maturation to lysosomes, we compared the protein-lipid interactions in neutral (pH 7.4) and acidic (pH 6.0) conditions. […] As reported earlier for POPS, all negatively charged lipids enhanced the binding of rHsp70 to the liposomes at neutral pH approximately 4-fold irrespective of the charge density on the liposome surface (ranging from −1 to −2).
(§3) In order to investigate which part of the Hsp70 protein is responsible for the BMP binding, we measured the fluorescence shift of the tryptophans upon docking of rHsp70 and its mutants into BMP-containing liposomes. […] Next, we substituted the two tryptophans in Hsp70 with phenylalanines (W90F and W580F) and studied which tryptophan is responsible for the fluorescence shift induced by lipid binding. […] A more quantitative BIAcore analysis of the BMP—rHsp70 interaction confirmed that Hsp70 interacted with BMP mainly through its ATPase domain. […]

[5] = test system: cisplatin-induced lysosomal cell death; assay: Cisplatin-induced lysosomal cell death; type: cell-based
Excerpt: Thus, we investigated the interaction of Hsp70 with palmitoyl-oleoyl-phosphatidylcholine (POPC) large unilamellar vesicles (LUVs) containing various membrane-associated anionic lipids, i.e. palmitoyl-oleoyl-phosphatidylserine (POPS; primarily in plasma membrane), cardiolipin (primarily mitochondrial) and BMP (primarily in late endosomes/lysosomes). Taking into account the increasingly acidic milieu of the endo-lysosomal compartment upon maturation to lysosomes, we compared the protein-lipid interactions in neutral (pH 7.4) and acidic (pH 6.0) conditions. […]
as §3
Cell density was assessed by the 3-(4,5-dimethylthiazole-2-y)-2,5-[…] (MTT, SIGMA-Aldrich) reduction assay essentially as described in the art. […] For each experiment a minimum of eight randomly chosen areas were counted.

Hsp70 chaperone = molecular target: T1, Hsp70 chaperone (Homo sapiens, UniProt P0DMV8, W90F); assay: Structural and functional aspects of the Hsp70 chaperone (circular dichroism, luciferase folding, ATP hydrolysis); type: biochemical; conditions: far- and near-UV circular dichroism
T1 construct: made in house
T1 sequence (P0DMV8 whole entry W90F): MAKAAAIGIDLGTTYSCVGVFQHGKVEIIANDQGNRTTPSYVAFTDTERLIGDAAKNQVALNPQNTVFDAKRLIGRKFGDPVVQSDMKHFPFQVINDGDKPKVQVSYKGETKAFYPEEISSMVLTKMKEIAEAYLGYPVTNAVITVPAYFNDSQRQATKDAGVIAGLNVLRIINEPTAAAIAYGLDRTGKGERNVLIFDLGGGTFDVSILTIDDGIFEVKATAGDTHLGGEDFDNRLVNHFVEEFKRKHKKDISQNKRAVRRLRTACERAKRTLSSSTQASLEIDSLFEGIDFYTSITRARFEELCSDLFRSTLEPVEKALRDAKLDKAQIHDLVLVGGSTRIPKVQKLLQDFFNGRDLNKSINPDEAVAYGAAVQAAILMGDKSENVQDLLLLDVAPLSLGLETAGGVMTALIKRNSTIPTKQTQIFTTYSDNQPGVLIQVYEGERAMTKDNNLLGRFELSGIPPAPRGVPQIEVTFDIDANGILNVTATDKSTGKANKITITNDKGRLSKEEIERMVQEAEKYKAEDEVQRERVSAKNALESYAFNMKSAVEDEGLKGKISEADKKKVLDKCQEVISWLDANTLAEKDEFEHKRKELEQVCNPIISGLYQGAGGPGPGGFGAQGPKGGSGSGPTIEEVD

ASM = ASM activity in NPDA patient cells; type: cell-based, Human; conditions: loading the lysosomes of patient cells
Excerpt: as §1
WT- and Hsp70-MEFs were generated, immortalized and maintained as described in the art. Human NPDA fibroblasts (83/24) originate from a skin biopsy of a patient with hepatosplenomegaly. […] The photo-oxidation-induced loss of the lysosomal pH-gradient and leakage of acridine orange to the cytosol from individual lysosomes was quantified visually as “loss of red dots” in U2-O—S cells and as a decrease in red and an increase in green fluorescence by Zeiss LSM DUO Software in fibroblasts. The total and cytoplasmic (digitonin-extracted) cathepsin activities were measured in digitonin-treated samples using zFR-AFC (Enzyme System Products) probe as described in the art. The tryptophan fluorescence spectra and liposome 90° light scattering were analyzed in a HEPES buffer (20 mM HEPES, 0.1 mM EDTA, pH as indicated) essentially as described in the art. […] Apoptosis-like cell death and lysosomal membrane permeabilization were analyzed essentially as described in the art. […]

NPDA cells [6] = assay: Volume of the lysosomal compartment in NPDA cells; type: cell-based, Human
Excerpt: as §1
Primary antibodies used included mouse monoclonal antibodies against Hsp70 (2H9; kindly provided by Boris Margulis, Russian Academy of Sciences, St. Petersburg, Russia), glyceraldehyde-3-phosphate dehydrogenase (GAPDH; Biogenesis), BMP (6C4), lysosomal integral membrane protein-1 (H5C6; developed by J. Thomas August and James E. K. Hildreth and obtained from the Developmental Studies Hybridoma Bank developed under the auspices of the NICHD and maintained by The University of Iowa, Department of Biological Sciences, Iowa City, USA). Proteins separated by 10% SDS-PAGE and transferred to a nitrocellulose membrane were detected by using indicated primary antibodies, appropriate peroxidase-conjugated secondary antibodies from Dako, ECL Western blotting reagents (Amersham), and Luminescent Image Reader (LAS-1000Plus, Fujifilm). For immunocytochemistry Alexa […] or Alexa Fluor®-488-conjugated secondary antibodies were used. […] Fluorescence images were taken using a Zeiss Axiovert 100M laser scanning microscope. […]

NPDA cells [7] = assay: Lysosomal stability in NPDA cells; type: cell-based, Human
Protocol: as §1, §2

## CNCCCN1c2ccccc2CCc2ccccc21 [Desipramine, desipramine]
Hsp70-MEFs
  lysosomal stress resistance of Hsp70-MEFs upon photo-oxidation: reverted the lysosomal stress resistance of Hsp70-MEFs to the level of WT-MEFs
MEFs [1]
  permeabilization of lysosomes: massive permeabilization of lysosomes
MEFs [2]
  viability of MEFs: reduced the viability of MEFs in a dose-dependent manner

## Hsc70: recombinant Hsc70, 86% identical to the amino acid sequence of Hsp70
U-2-OS cells
  protection of lysosomes against photo-oxidation (lysosomal stabilization): no lysosomal stabilization

## Hsp70-2: recombinant Hsp70-2, 84% identical to the amino acid sequence of Hsp70
U-2-OS cells
  protection of lysosomes against photo-oxidation (lysosomal stabilization): no lysosomal stabilization

## rHsp70-W90F: rHsp70 mutant with tryptophan 90 substituted with phenylalanine
[3]
  relative peak fluorescence intensity (tryptophan fluorescence shift): reduction of the signal
U-2-OS cells
  protection of lysosomes against photo-oxidation (lysosomal stabilization): completely lost its ability to protect
[4]
  interaction with BMP (BIAcore): specifically abolished the interaction between rHsp70 and BMP
[5]
  protection of cells against cisplatin-induced lysosomal cell death: completely lost its ability to protect
Hsp70 chaperone
  structural and functional aspects of the chaperone: retaining the structural (folding as analyzed by far- and near-UV circular dichroism) and functional (luciferase folding and ATP hydrolysis) aspects

## rHsp70-W580F: rHsp70 mutant with tryptophan 580 substituted with phenylalanine
U-2-OS cells
  protection of lysosomes against photo-oxidation (lysosomal stabilization): same protective effect as the wild-type protein
[5]
  protection of cells against cisplatin-induced lysosomal cell death: same protective effect as the wild-type protein

B1: rASM: recombinant acid sphingomyelinase (protein, UniProt P17405 47-631, looked up)
Sphingomyelin …: LALSDSRVLWAPAEAHPLSPQGHPARLHRIVPRLRDVFGWGNLTCPICKGLFTAINLGLKKEPNVARVGSVAIKLCNLLKIAPPAVCQSIVHLFEDDMVEVWRRSVLSPSEACGLLLGSTCGHWDIFSSWNISLPTVPKPPPKPPSPPAPGAPVSRILFLTDLHWDHDYLEGTDPDCADPLCCRRGSGLPPASRPGAGYWGEYSKCDLPLRTLESLLSGLGPAGPFDMVYWTGDIPAHDVWHQTRQDQLRALTTVTALVRKFLGPVPVYPAVGNHESTPVNSFPPPFIEGNHSSRWLYEAMAKAWEPWLPAEALRTLRIGGFYALSPYPGLRLISLNMNFCSRENFWLLINSTDPAGQLQWLVGELQAAEDRGDKVHIIGHIPPGHCLKSWSWNYYRIVARYENTLAAQFFGHTHVDEFEVFYDEETLSRPLAVAFLAPSATTYIGLNPGYRVYQIDGNYSGSSHVVLDHETYILNLTQANIPGAIPHWQLLYRARETYGLPNTLPTAWHNLVYRMRGDMQLFQTFWFLYHKGHPPSEPCGTPCRLATLCAQLSARADSPALCRHLMPDGSLPEAQSLWPRPLFC
ASM
  ASM activity in NPDA patient cells: increased ASM activity
NPDA cells [6]
  volume of the enlarged lysosomal compartment in NPDA cells: normalize the volume
NPDA cells [7]
  stabilization of lysosomes in NPDA cells: stabilize the lysosomes
